Assay results taken from patent US12139481B2, “Compositions comprising macrocycle derivatives incorporating bridged macrocycles and methods of producing and using same” (Southwestern Oklahoma State University, priority 2015, dated 2024).
pIC50: −log10 of the molar value. Like-named read-outs stand apart in the source and are kept apart here.

Experiments:
[1] = test system: Cryptococcus neoformans ATCC 90113; assay: Antimicrobial microdilution assay against Cryptococcus neoformans (modified CLSI/NCCLS, optical density); assay type: cell-based; details: for X more potent than Amphotericin B: C. neoformans, ratio of molar IC50 to Amphotericin B; for C. neoformans IC50 / pIC50: in vitro, C. neoformans ATCC 90113; for pIC50: read-out: C. neoformans IC50 (mol/L)
Description: Summary: Various macrocyclic derivatives constructed in accordance with the presently disclosed and/or claimed inventive concept(s) were screened in vitro against Cryptococcus neoformans ATCC 90113 using a microdilution assay. The minimum fungicidal concentration (MFC), the lowest test concentration that kills the organism, was determined in broth media.
Antimicrobial assay: Cryptococcus neoformans ATCC 90113 were obtained from the American Type Culture Collection (Manassas, VA.). The susceptibility testing was performed using a modified version of the CLSI (formerly NCCLS) methods (see below), and optical density was used to monitor growth. Samples were serially diluted in 20% DMSO/saline and transferred in duplicate to 96-well flat bottom microplates. Microbial inocula were prepared by correcting the OD630 of cell/spore suspensions in incubation broth RPMI at pH 6.0 to afford final desired target inocula. Amphotericin B (“AMB;” ICN Biomedicals, OH) was used as drug control. The organism concentration was read at 630 nm using the Biotek Powerwave XS plate reader (Bio-Tek instruments, VT) prior to and after incubation. Minimum fungicidal concentrations were determined by removing 5 μL from each clear well, transferring to agar, and incubating until growth was seen. The MFC/MBC is defined as the lowest test concentration that kids the organism (allows no growth on agar).
References for NCCLS methods referenced above: 1 NCCLS. Reference method for broth dilution antifungal susceptibility testing of yeasts, Vol. 22. Approved standard, 2nd ed. Wayne: National Committee for Clinical Laboratory Standards; 2002: 1-51. 2 NCCLS. Reference method for broth dilution antifungal susceptibility testing of conidium forming filamentous fungi, Vol. 18. Proposed standard M38-P. Wayne: National Committee for Clinical Laboratory Standards; 1998: 1-39. 3 NCCLS. Methods for dilution antimicrobial susceptibility tests for bacteria that grow aerobically, Vol. 20. NCCLS Document M7-A5. Wayne: National Committee for Clinical Laboratory Standards; 2000: 1-58.
The term “IC50” as used herein will be understood to refer to a test concentration in mol/L that affords 50% inhibition of the microbe relative to negative and positive controls. […] The abbreviation “MFC” as used herein will be understood to refer to a minimum fungicidal concentration, or the lowest test concentration in mol/L that kills the organism. All IC50s are calculated using the XLfit® fit curve fitting software (ID Business Solutions Ltd, Guildford, Surrey, UK).
(§1) General Experimental Procedures. All organisms were obtained from the American Type Culture Collection (Manassas, VA) and include the fungi Candida albicans ATCC 90028, C. glabrata ATCC 90030, C. krusei ATCC 6258, and Cryptococcus neoformans ATCC 90113, and the bacteria Staphylococcus aureus ATCC 29213 and methicillin-resistant S. aureus ATCC 33591 (MRS). All organisms were tested using modified versions of the CLSI (formerly NCCLS) methods. For all organisms, optical density was used to monitor growth (NCCLS, Reference Method for Broth Dilution Antifungal Susceptibility Testing of Yeasts; Approved Standard M27-A2. National Committee on Clinical Laboratory Standards, 2002 22 (15); and NCCLS, Methods for Dilution Antimicrobial Susceptibility Tests for Bacteria that Grow Aerobically; Approved Standard, Seventh Edition M7-A7. National Committee on Clinical Laboratory Standards, 2006. 26(2)).
Samples (dissolved in DMSO) were serially-diluted in 20% DMSO/saline and transferred (10 μL) in duplicate to 96 well flat bottom microplates.

C. glabrata ATCC 90030 = assay: Antifungal broth dilution assay against C. glabrata (modified CLSI); assay type: cell-based, Candida glabrata; details: for C. glabrata IC50 / pIC50: in vitro; for pIC50: converted with molecular weight; for X more potent than Amphotericin B: molar IC50 ratio versus amphotericin B
Description: as §1
Samples (dissolved in DMSO) were serially-diluted in 20% DMSO/saline and transferred (10 μL) in duplicate to 96 well flat bottom microplates. Inocula were prepared by correcting the OD630 of microbe suspensions in incubation broth [RPMI 1640/0.2% dextrose/0.03% glutamine/MOPS @ pH 6.0 (Cellgro) for Candida spp., Sabouraud Dextrose for C. neoformans, and cation-adjusted Mueller-Hinton (Difco) @ pH 7.3 for Staphylococcus spp. to afford an assay volume of […] and final target inocula of: Candida spp. and C. neoformans: 1.5×10^3, and Staphylococcus spp.: 5.0×10^5 CFU/ml. Final sample test concentrations were 1/100th the DMSO stock concentration. […] All organisms were read at either 530 nm using the Biotek Powerwave XS plate reader (Bio-Tek Instruments, Vermont) prior to and after incubation: Candida spp. at 35° C. for 46-50 h, Staphylococcus spp. at 35° C. for 16-20 h, and C. neoformans at 35° C. for 70-74 h. IC50s (concentrations that afford 50% inhibition relative to controls) were calculated using XLfit 4.2 software (IDBS, Alameda, CA) using fit model 201. The MIC is defined as the lowest test concentration that allows no detectable growth. Minimum fungicidal or bactericidal concentrations were determined by removing 5 μl from each clear (or blue) well, transferring to fresh media, and incubating as previously mentioned. The MFC/MBC is defined as the lowest test concentration that kills the organism (allows no growth).
Primary Analysis. Samples were tested in duplicate at one test concentration (50 μg/mL), and percent inhibitions were calculated relative to blank and growth controls. Samples showing 50% inhibition in at least one test organism were selected for dose response (Secondary) studies.
Secondary Analysis. Extracts from the Primary Assay, and first-run pure compounds and column fractions were tested in duplicate at 3 test concentrations (5-fold dilutions). Samples dissolved to 20 mg/mL in DMSO were tested at 200, 40, and 8 μg/mL. Samples dissolved to 2 mg/mL in DMSO were tested at 20, 4, and 0.8 μg/mL.

[2] = test system: L. donovani promastigotes; assay: Antileishmanial Alamar Blue assay on promastigotes; assay type: cell-based, Leishmania donovani; details: for X more potent than Pentamidine: L. donovani, ratio of molar IC50 to Pentamidine; for L. donovani IC50 / pIC50: promastigotes, 48 hours, Alamar Blue; for pIC50: read-out: L. donavani IC50
Description: Methods: The compounds were screened in vitro against the promastigote forms of the leishmania parasites employing the Alamar Blue assay as discussed below.
Antileishmanial activity of the compounds was tested in vitro against a culture of L. donovani promastigotes, grown in RPMI 1640 medium supplemented with 10% fetal calf serum (FCS, Gibco Chem. Co., Grand Island, NY) at 26° C. A 3-day-old culture was diluted to 5×10^5 promastigotes/mL. Drug dilutions (50-3.1 μg/mL) were prepared directly in cell suspension in 96-well plates. Plates were incubated at 26° C. for 48 hours, and growth of leishmania promastigotes was determined by Alamar Blue assay. Standard fluorescence was measured on a FLUOstar® Galaxy plate reader (BMG Lab Technologies, Ortenberg, Germany) at an excitation wavelength of 544 nm and emission wavelength of 590 nm. Pentamidine and amphotericin B were used as the standard antileishmanial agents. Percent growth was calculated and plotted versus test concentration for computing the IC50 values.

| Molecule | X more potent than Amphotericin B [1] | C. neoformans IC50 [1] [µg/mL] | pIC50 [1] | C. glabrata IC50 (C. glabrata ATCC 90030) [µg/mL] | pIC50 (C. glabrata ATCC 90030) | X more potent than Amphotericin B (C. glabrata ATCC 90030) | X more potent than Pentamidine [2] | L. donovani IC50 [2] [µg/mL] | pIC50 [2] | pIC50 ([1]; HCl salt) | pIC50 ([2]; HCl salt) |
| --- | --- | --- | --- | --- | --- | --- | --- | --- | --- | --- | --- |
| CC(=O)[O-].CC(=O)[O-].CC(=O)[O-].CN1CCCN2CCN(CCCN(Cc3cc(CN4CCCN5CCN(C)CCCN(CC5)CC4)cc(CN4CCCN5CCN(C)CCCN(CC5)CC4)c3)CC2)CC1.F[P-](F)(F)(F)(F)F.F[P-](F)(F)(F)(F)F.F[P-](F)(F)(F)(F)F.[Cu+2].[Cu+2].[Cu+2] [BNS25, [Cu3(tris-CB-Cyclams)(OAc)3][PF6]3] | 0.20 | 1.950 | 5.92 | 5.420 | 5.48 | 0.43 |  |  |  |  |  |
| [Cu2(p-CB-cyclam-cyclen)(OAc)2][PF6]2 [CMB029] | 0.32 | ≤ 0.800 | 6.13 | 4.190 | 5.42 | 0.37 |  |  |  |  |  |
| p-SB-cyclens HCl salt [OB24B] | 0.31 | 0.670 | 6.11 |  |  |  | 0.14 | 32.40 | 4.43 |  |  |
| CC(=O)[O-].CC(=O)[O-].F[P-](F)(F)(F)(F)F.F[P-](F)(F)(F)(F)F.O.[Zn+2].[Zn+2].c1cc(CN2CCCN3CCNCCCN(CC3)CC2)ccc1CN1CCCN2CCNCCCN(CC2)CC1 [TJH417B, [Zn2(H2-p-CB-cyclams)(OAc)2][PF6]2•H2O] | 0.08 | 3.120 |  |  |  |  | 0.17 | 34.93 |  |  |  |
| c1ccc(CN2CCCNCCN(Cc3ccccc3)CCCNCC2)cc1 [BME04, Bn2Cyclam] | 0.01 | 12.160 | 4.50 |  |  |  | 0.77 | 2.63 | 5.16 |  |  |
| p-CB-cyclam-cyclen [CMB008D] | 0.17 | ≤ 0.800 | 5.84 |  |  |  | 0.08 | 38.75 | 4.16 |  |  |
| [Cu2(m-CB-Homocyclens)(OAc)2.5][PF6]1.5 [CDG035] | 0.08 | 3.260 | 5.51 |  |  |  | 0.21 | 26.37 | 4.60 |  |  |
| c1cc(CN2CCCN3CCNCCCN(CC3)CC2)ccc1CN1CCCN2CCNCCCN(CC2)CC1 [JGL44, p-CB-H2Bcyclams] | 0.73 | 0.180 | 6.49 |  |  |  | 0.11 | 28.08 | 4.30 |  |  |
| CC(=O)[O-].Clc1cc(CN2CCCN3CCN(CCCNCC2)CC3)cc(Cl)n1.F[P-](F)(F)(F)(F)F.[Co+2] [KLC002A] |  |  |  | 16.070 | 4.61 | 0.06 |  |  |  |  |  |
| [Co2(m-CB-Homocyclens)(OAc)2.6][PF6]1.4 [CDG036] | 0.08 | 3.040 | 5.53 |  |  |  | 0.25 | 22.23 | 4.67 |  |  |
| CC(=O)[O-].CC(=O)[O-].CC(=O)[O-].CC(=O)[O-].O=[N+]([O-])c1ccc(CC2CNCCN(Cc3ccc(CN4CCCN5CCN(CCCNCC4)CC5)cc3)CCCN3CCN(CC3)C2)cc1.[Zn+2].[Zn+2] (centres unmarked) [SJA235, [Zn2(bis-SB-C-Ar-NO2)(OAc)4]] | 0.13 | 1.930 |  |  |  |  | 0.16 | 34.77 |  |  |  |
| O.[Cl-].[Cl-].[Mn+2].c1ccc(CN2CCCNCCN(Cc3ccccc3)CCCNCC2)cc1 [TJH397A, Mn(Bn2Cyclam)Cl2•H2O] | 0.01 | 16.870 | 4.49 |  |  |  | 1.21 | 2.31 | 5.36 |  |  |
| Cl.Cl.Cl.Cl.Cl.Cl.Cl.Cl.c1cc(CN2CCNCCCN3CCN(CC3)CC2)ccc1CN1CCNCCCN2CCN(CC2)CC1 [OB45B, p-SB-homocyclens HCl salt] | 0.67 | 0.290 |  |  |  |  | 0.13 | 34.55 |  | 6.45 | 4.37 |
| [Ni3(tris-CB-Cyclams)(OAc)3][PF6]3•2.5H2O [BNS23] | 0.03 | 12.110 | 5.14 |  |  |  | 0.28 | 31.63 | 4.72 |  |  |
| c1ccc(CN2CCN3CCN(CC2)CCN(Cc2ccccn2)CC3)nc1 [PW95] |  |  |  | 14.850 | 4.41 | 0.04 |  |  |  |  |  |
| [Cl][Mn-2]([Cl])([Cl])[Cl].[Cl][Mn-2]([Cl])([Cl])[Cl].[Mn+2].[Mn+2].c1cc(CN2CCCN3CCNCCCN(CC3)CC2)ccc1CN1CCCN2CCNCCCN(CC2)CC1 [TJH412, [Mn2(H2-p-CB-cyclams)][MnCl4]2] | 0.13 | 1.990 | 5.73 |  |  |  | 0.17 | 33.37 | 4.50 |  |  |
